Measured values from ChEMBL document CHEMBL1201862, “PubChem BioAssay data set” (2004).
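Following 48 hours of exposure in 96-well plates, responses at five concentrations were used to interpolate endpoints linearly. Here, GI50 denotes the concentration required for 50% inhibition of growth.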 The source made the active and inactive calls. Rule as the data show it: active = GI50 up to about 1.1 µM and inactive = higher.

Legend:
Experiment in all cases: DTP human tumour cell line panel, 48 h
[1] = system: NCI-H23
[2] = system: K562
[3] = system: HT-29
[4] = system: TK-10
[5] = system: HL-60
[6] = system: HOP-62
[7] = system: KM12
[8] = system: MDA-MB-231
[9] = system: SK-MEL-28
[10] = system: UACC-62
[11] = system: OVCAR-4
[12] = system: DU-145
[13] = system: UACC-257
[14] = system: SW-620
[15] = system: SF-268
[16] = system: HOP-92
[17] = system: SN12C
[18] = system: MDA-MB-435
[19] = system: 786-0
[20] = system: RPMI-8226
[21] = system: PC-3
[22] = system: LOX IMVI
[23] = system: CCRF-CEM
[24] = system: COLO 205
[25] = system: SNB-75
[26] = system: IGROV-1
[27] = system: M14
[28] = system: T47D
[29] = system: SF-295
[30] = system: CAKI-1
[31] = system: SK-OV-3
[32] = system: MDA-N
[33] = system: HCT-15
[34] = system: SR
[35] = system: EKVX
[36] = system: MOLT-4
[37] = system: SK-MEL-5
[38] = system: A549
[39] = system: RXF 393
[40] = system: Malme-3M
[41] = system: OVCAR-8
[42] = system: U-251
[43] = system: OVCAR-5
[44] = system: NCI-H522
[45] = system: UO-31
[46] = system: A498
[47] = system: Hs-578T
[48] = system: SF-539
[49] = system: SK-MEL-2
[50] = system: NCI-H226
[51] = system: HCC 2998
[52] = system: SNB-19
[53] = system: HCT-116
[54] = system: NCI-H460
[55] = system: NCI/ADR-RES
[56] = system: OVCAR-3
[57] = system: ACHN
[58] = system: MCF7

Measured: GI50

CN(C)c1n/c(=N/Cc2cccnc2)ss1
> 10 µM: [33]
inactive: [1] > 10 µM | [3] > 10 µM | [4] > 10 µM | [5] 3.24 µM | [6] > 10 µM | [7] > 10 µM | [8] > 10 µM | [9] > 10 µM | [10] > 10 µM | [11] > 10 µM | [12] > 10 µM | [13] > 10 µM | [14] > 10 µM | [15] > 10 µM | [16] > 10 µM | [17] > 10 µM | [18] > 10 µM | [19] > 10 µM | [20] > 10 µM | [21] > 10 µM | [22] 8.95 µM | [24] > 10 µM | [25] > 10 µM | [26] > 10 µM | [27] > 10 µM | [28] > 10 µM | [29] > 10 µM | [30] > 10 µM | [31] > 10 µM | [32] > 10 µM | [34] 2.09 µM | [35] > 10 µM | [36] 3.5 µM | [37] > 10 µM | [38] > 10 µM | [39] > 10 µM | [40] > 10 µM | [41] > 10 µM
active: [2] 1.12 µM | [23] 0.597 µM

O=S1(=O)OCCOS(=O)(=O)C1(F)Cc1ccccc1
> 100 µM: [33]
inactive: [1] > 100 µM | [2] > 100 µM | [3] > 100 µM | [4] > 100 µM | [5] > 100 µM | [6] > 100 µM | [8] > 100 µM | [9] > 100 µM | [42] > 100 µM | [10] > 100 µM | [11] > 100 µM | [43] > 100 µM | [44] > 100 µM | [12] > 100 µM | [45] > 100 µM | [46] > 100 µM | [14] > 100 µM | [47] > 100 µM | [15] > 100 µM | [16] > 100 µM | [17] > 100 µM | [48] > 100 µM | [18] > 100 µM | [19] > 100 µM | [49] > 100 µM | [20] > 100 µM | [21] > 100 µM | [22] > 100 µM | [50] > 100 µM | [51] > 100 µM | [23] > 100 µM | [52] > 100 µM | [24] > 100 µM | [25] > 100 µM | [26] > 100 µM | [27] > 100 µM | [28] > 100 µM | [53] > 100 µM | [54] > 100 µM | [29] > 100 µM | [55] > 100 µM | [30] > 100 µM | [56] > 100 µM | [31] > 100 µM | [32] > 100 µM | [34] > 100 µM | [35] > 100 µM | [36] > 100 µM | [37] > 100 µM | [38] > 100 µM | [39] > 100 µM | [40] > 100 µM | [41] > 100 µM | [57] > 100 µM

CN(CC(=O)O)c1ncc2c(n1)C=CCC2
> 100 µM: [33]
inactive: [1] > 100 µM | [2] > 100 µM | [3] > 100 µM | [4] > 100 µM | [5] 81.5 µM | [6] > 100 µM | [7] > 100 µM | [8] > 100 µM | [58] > 100 µM | [9] > 100 µM | [42] > 100 µM | [10] > 100 µM | [11] > 100 µM | [43] > 100 µM | [44] > 100 µM | [12] > 100 µM | [45] > 100 µM | [13] > 100 µM | [46] > 100 µM | [14] > 100 µM | [47] > 100 µM | [15] > 100 µM | [16] > 100 µM | [17] > 100 µM | [48] > 100 µM | [18] > 100 µM | [19] > 100 µM | [49] > 100 µM | [20] > 100 µM | [21] > 100 µM | [22] > 100 µM | [50] > 100 µM | [23] > 100 µM | [52] > 100 µM | [24] > 100 µM | [25] > 100 µM | [26] > 100 µM | [27] > 100 µM | [53] > 100 µM | [54] > 100 µM | [29] > 100 µM | [55] > 100 µM | [30] > 100 µM | [56] > 100 µM | [31] > 100 µM | [32] > 100 µM | [34] > 100 µM | [35] > 100 µM | [36] > 100 µM | [37] > 100 µM | [38] > 100 µM | [39] > 100 µM | [40] > 100 µM | [41] > 100 µM | [57] > 100 µM

CCCCCCCCCCCCCCCCCCOC[C@H](COP(=O)(O)O[C@H]1[C@H](O)[C@@H](O)[C@H](O)C[C@H]1O)OC
inactive: [46] > 100 µM | [20] 22.1 µM | [25] 19.2 µM | [34] 15.8 µM

CC1=C2C(=O)c3ccccc3C(=O)[C@H]2C[C@@H](N2CCCC2=O)O1
inactive: [1] 21.9 µM | [2] 49.8 µM | [3] 41.6 µM | [4] 70.3 µM | [5] 40.8 µM | [6] 39.6 µM | [7] 77.6 µM | [8] 39.6 µM | [58] 12.9 µM | [9] 54.7 µM | [42] 28 µM | [10] 33 µM | [11] 20.2 µM | [43] 19.4 µM | [44] 79.8 µM | [12] 26.9 µM | [45] > 100 µM | [13] 65.6 µM | [46] 54.8 µM | [14] 23.8 µM | [47] 94.8 µM | [15] 48.1 µM | [16] 21.9 µM | [17] 53.2 µM | [48] 25.5 µM | [18] 18.5 µM | [19] 25.2 µM | [49] > 100 µM | [20] 21.7 µM | [21] > 100 µM | [22] 20.2 µM | [51] > 100 µM | [23] 32.4 µM | [52] > 100 µM | [24] 79.1 µM | [25] 15.3 µM | [26] 80.9 µM | [27] 14.7 µM | [28] 22.8 µM | [54] 61.1 µM | [29] 66.8 µM | [55] 28.4 µM | [30] 77.3 µM | [56] 26.5 µM | [31] > 100 µM | [32] 16.4 µM | [34] 32.2 µM | [35] 76.4 µM | [36] 32.1 µM | [37] 17.1 µM | [38] 43.1 µM | [39] 23.7 µM | [40] 17.4 µM | [41] 50.9 µM | [57] 90.6 µM
49.2 µM: [33]

CCOC(=O)C1=NN(c2ccc(Cl)cc2)C2=CC(C)=NN(C)C(=S)N21
inactive: [1] 42.1 µM | [2] > 100 µM | [3] > 100 µM | [4] 22 µM | [5] > 100 µM | [7] > 100 µM | [8] 44.5 µM | [58] > 10 µM | [9] > 100 µM | [42] 25.9 µM | [10] 40.6 µM | [11] 37.6 µM | [43] > 100 µM | [44] 20.7 µM | [12] 79.3 µM | [45] > 100 µM | [13] > 100 µM | [14] 94.6 µM | [47] 27.5 µM | [15] 45.2 µM | [16] 30.8 µM | [17] 51.5 µM | [48] 22.6 µM | [18] > 100 µM | [49] > 10 µM | [20] > 100 µM | [21] > 100 µM | [22] 47.1 µM | [51] > 100 µM | [23] > 100 µM | [52] 41.5 µM | [24] > 100 µM | [25] 26.8 µM | [26] 44.8 µM | [27] 59.7 µM | [28] 23.9 µM | [53] 36.6 µM | [54] > 100 µM | [29] 42.2 µM | [55] 65 µM | [30] 19.9 µM | [56] 56.5 µM | [31] 29.9 µM | [32] > 100 µM | [34] > 100 µM | [35] 29.9 µM | [36] > 100 µM | [37] > 100 µM | [38] 95.7 µM | [39] 25.4 µM | [41] 41.3 µM | [57] 72.6 µM
67.5 µM: [33]
